Values quoted from earlier work in PMC9901186 (bioRxiv, 2023).

System: NOD1

CCCCCCCCCCCC(=O)N[C@H](CCC(=O)NC(CCCC(N)C(=O)O)C(=O)O)C(=O)O (stereo partly shown) [C12-iE-DAP]
greater activation of NOD1-dependent NF-κB reporter relative to iE-DAP: ~ 100 fold
